From patent publication US20250051347A1, “BIFUNCTIONAL CHIMERIC HETEROCYCLIC COMPOUND AND USE THEREOF AS ANDROGEN RECEPTOR DEGRADER” (Hinova Pharmaceuticals, Inc., priority 2021, published 2025)

biological target: T1, androgen receptor (AR) splicing variant AR-v7 (Homo sapiens, UniProt P10275); assay: Degradation activity on androgen receptor splicing variant AR-v7 in 22RV1 cells (ELISA); format: cell-based; conditions: AR-v7 degradation in 22RV1 cells, 48 h, class symbols
T1 construct: The degradation activity of compounds on AR-v7 in 22RV1 cells; host or cells: 22RV1 cells
T1 sequence (P10275 1-644 isoform P10275-3): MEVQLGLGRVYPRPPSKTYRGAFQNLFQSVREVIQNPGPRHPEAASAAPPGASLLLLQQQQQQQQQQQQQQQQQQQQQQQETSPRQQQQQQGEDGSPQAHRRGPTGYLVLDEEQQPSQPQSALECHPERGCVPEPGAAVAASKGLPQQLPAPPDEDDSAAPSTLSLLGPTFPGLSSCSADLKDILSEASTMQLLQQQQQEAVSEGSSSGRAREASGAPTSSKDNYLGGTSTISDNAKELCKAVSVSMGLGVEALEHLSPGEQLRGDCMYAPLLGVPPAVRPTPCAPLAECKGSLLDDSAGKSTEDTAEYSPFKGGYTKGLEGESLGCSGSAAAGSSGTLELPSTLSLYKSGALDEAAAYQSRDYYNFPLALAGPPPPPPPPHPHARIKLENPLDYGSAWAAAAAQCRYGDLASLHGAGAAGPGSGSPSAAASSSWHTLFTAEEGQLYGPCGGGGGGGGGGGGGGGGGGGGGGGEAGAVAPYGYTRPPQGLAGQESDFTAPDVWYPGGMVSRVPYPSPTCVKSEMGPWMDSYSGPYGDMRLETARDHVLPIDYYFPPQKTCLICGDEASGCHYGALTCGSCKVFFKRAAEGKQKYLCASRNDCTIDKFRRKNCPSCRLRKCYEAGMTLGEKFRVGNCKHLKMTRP

Row | Compound | DC50 [nM]
1 | CC(C)(c1ccc(OCCCNc2ccc3c(c2)C(=O)N(C2CCC(=O)NC2=O)C3=O)cc1)c1ccc(OCc2nc(C(=O)N3CCCC3)no2)cc1 (centres unmarked) [Example 140, 2-(2,6-dioxopiperidin-3-yl)-5-((3-(4-(2-(4-((3-(pyrrolidin-1-carbonyl)-1,2,4-oxadiazol-5-yl)methoxy)phenyl)propan-2-yl)phenoxy)propyl)amino)isoindolin-1,3-dione] | 101 to 1000
2 | CN(C)C(=O)c1noc(COc2ccc(C(C)(C)c3ccc(OCCCNc4ccc5c(c4)C(=O)N(C4CCC(=O)NC4=O)C5=O)cc3)cc2)n1 (centres unmarked) [Example 180, 5-((4-(2-(4-(3-((2-(2,6-dioxopiperidin-3-yl)-1,3-dioxoisoindolin-5-yl)amino)propoxy)phenyl)propan-2-yl)phenoxy)methyl)-N,N-dimethyl-1,2,4-oxadiazol-3-carbonylamine] | 1000 to 5000
3 | CC(C)(c1ccc(OCc2ccnc(NC#N)n2)cc1)c1ccc(O[C@H]2C[C@H](Nc3ccc4c(c3)C(=O)N(C3CCC(=O)NC3=O)C4=O)C2)cc1 (some centres unmarked) [Example 245, N-(4-((4-(2-(4-((1s,3s)-3-((2-(2,6-dioxopiperidin-3-yl)-1,3-dioxoisoindolin-5-yl)amino)cyclobutyloxy)phenyl)propan-2-yl)phenoxy)methyl)pyrimidin-2-yl)cyanamide] | 101 to 1000
4 | CC(C)(c1ccc(OCc2ccnc(N3CC4(COC4)C3)n2)cc1)c1ccc(OCC2(CNc3ccc4c(c3)C(=O)N(C3CCC(=O)NC3=O)C4=O)CC2)cc1 (centres unmarked) [Example 495] | 101 to 1000
5 | CC(C)(c1ccc(OCc2ccnc(OC3CCN(C(=O)OCc4ccccc4)CC3)n2)cc1)c1ccc(O[C@H]2C[C@@H](Nc3ccc4c(c3)C(=O)N(C3CCC(=O)NC3=O)C4=O)C2)cc1 (some centres unmarked) [Example 235] | 101 to 1000
6 | CC(C)(c1ccc(OCCCCCOc2ccc3c(c2)C(=O)N(C2CCC(=O)NC2=O)C3=O)cc1)c1ccc(OCc2ccnc(NS(C)(=O)=O)n2)cc1 (centres unmarked) [Example 9, N-(4-((4-(2-(4-((5-((2-(2,6-dioxopiperidin-3-yl)-1,3-dioxoisoindolin-5-yl)oxy)pentyl)oxy)phenyl)propan-2-yl)phenoxy)methyl)pyrimidin-2-yl)methanesulfonamide] | 1000 to 5000
7 | CC(C)(c1ccc(OCCCCCCCCOCCN2CCN(c3ccc4c(c3)C(=O)N(C3CCC(=O)NC3=O)C4=O)CC2)cc1)c1ccc(OCc2ccnc(NS(C)(=O)=O)n2)cc1 (centres unmarked) [Example 1, N-(4-((4-(2-(4-((8-(2-(4-(2-(2,6-dioxopiperidin-3-yl)-1,3-dioxoisoindolin-5-yl)piperazin-1-yl)ethoxy)octyl)oxy)phenyl)propan-2-yl)phenoxy)methyl)pyrimidin-2-yl)methanesulfonamide] | 101 to 1000
8 | CC(=O)c1nccc(COc2ccc(C(C)(C)c3ccc(OC[C@H]4CCN4c4ccc5c(c4)C(=O)N(C4CCC(=O)NC4=O)C5=O)cc3)cc2)n1 (stereo partly drawn) [Example 307, 5-((R)-2-((4-(2-(4-((2-acetylpyrimidin-4-yl)methoxy)phenyl)propan-2-yl)phenoxy)methyl)azetidin-1-yl)-2-(2,6-dioxopiperidin-3-yl)isoindolin-1,3-dione] | 1000 to 5000
9 | CC(=O)c1nccc(COc2ccc(C(C)(C)c3ccc(OC4CC5(CCN(c6ccc7c(c6)C(=O)N(C6CCC(=O)NC6=O)C7=O)C5)C4)cc3)cc2)n1 (centres unmarked) [Example 562] | 1000 to 5000
10 | C[C@@H]1CN(c2nccc(COc3ccc(C(C)(C)c4ccc(O[C@H]5C[C@@H](Nc6ccc7c(c6)C(=O)N(C6CCC(=O)NC6=O)C7=O)C5)cc4)cc3)n2)[C@H](C)CN1 (some centres unmarked) [Example 408] | 11 to 100
11 | CC(C)(c1ccc(OCCCNc2ccc3c(c2)C(=O)N(C2CCC(=O)NC2=O)C3=O)cc1)c1ccc(OCc2nc3ncccc3o2)cc1 (centres unmarked) [Example 442, 2-(2,6-dioxopiperidin-3-yl)-5-((3-(4-(2-(4-(oxazolo[4,5-b]pyridin-2-ylmethoxy)phenyl)propan-2-yl)phenoxy)propyl)amino)isoindolin-1,3-dione] | 11 to 100
12 | CC(C)(c1ccc(C#CCNc2ccc3c(c2)C(=O)N(C2CCC(=O)NC2=O)C3=O)cc1)c1ccc(OCc2ccnc(N3CC4(COC4)C3)n2)cc1 (centres unmarked) [Example 309, 5-((3-(4-(2-(4-((2-(2-oxa-6-azaspiro[3.3]heptan-6-yl)pyrimidin-4-yl)methoxy)phenyl)propan-2-yl)phenyl)prop-2-yn-1-yl)amino)-2-(2,6-dioxopiperidin-3-yl)isoindolin-1,3-dione] | 11 to 100
13 | Cc1nnc(-c2ccc(Oc3ccc(C(C)(C)c4ccc(O[C@H]5C[C@@H](Nc6ccc7c(=O)n(C8CCC(=O)NC8=O)cnc7c6)C5)cc4)cc3)cn2)o1 (some centres unmarked) [Example 120] | 11 to 100
14 | CC(C)(c1ccc(Oc2cnc(C(F)(F)F)nc2)cc1)c1ccc(O[C@H]2C[C@H](Nc3ccc4c(c3)C(=O)N(C3CCC(=O)NC3=O)C4=O)C2)cc1 (some centres unmarked) [Example 264] | 11 to 100

More lines, now with the values ahead:

Row | DC50 [nM] | Compound
15 | 11 to 100 | CN1CCN(c2ncc(COc3ccc(C(C)(C)c4ccc(OC5CC(Nc6ccc7c(c6)C(=O)N(C6CCC(=O)NC6=O)C7=O)C5)cc4)cc3)cn2)CC1 (centres unmarked) [Example 534]
16 | 11 to 100 | CCN1CC(Oc2nccc(COc3ccc(C(C)(C)c4ccc(O[C@H]5C[C@@H](Nc6ccc7c(c6)C(=O)N(C6CCC(=O)NC6=O)C7=O)C5)cc4)cc3)n2)C1 (some centres unmarked) [Example 466]
17 | 11 to 100 | Cc1noc(C)c1-c1nccc(COc2ccc(C(C)(C)c3ccc(O[C@H]4C[C@H](Nc5ccc6c(c5)C(=O)N(C5CCC(=O)NC5=O)C6=O)C4)cc3)cc2)n1 (some centres unmarked) [Example 271]
18 | < 10 | Cc1noc(-c2ncc(Oc3ccc(C4(c5ccc(O[C@H]6C[C@H](Nc7ccc8c(c7)C(=O)N(C7CCC(=O)NC7=O)C8=O)C6)cc5)CCCC4)cc3)cn2)n1 (some centres unmarked) [Example 297]
19 | 11 to 100 | CC(C)(c1ccc(OCc2ccnc(N3C[C@@H]4C[C@H]3CN4)n2)cc1)c1ccc(O[C@H]2C[C@@H](Nc3ccc4c(c3)C(=O)N(C3CCC(=O)NC3=O)C4=O)C2)cc1 (stereo partly drawn) [Example 260, 5-(((1s,3s)-3-(4-(2-(4-((2-((1S,4S)-2,5-diazabicyclo[2.2.1]heptan-2-yl)pyrimidin-4-yl)methoxy)phenyl)propan-2-yl)phenoxy)cyclobutyl)amino)-2-(2,6-dioxopiperidin-3-yl)isoindolin-1,3-dione]
20 | 11 to 100 | CNC(=O)c1noc(COc2ccc(C(C)(C)c3ccc(OCCCNc4ccc5c(c4)C(=O)N(C4CCC(=O)NC4=O)C5=O)cc3)cc2)n1 (centres unmarked) [Example 137, 5-((4-(2-(4-(3-((2-(2,6-dioxopiperidin-3-yl)-1,3-dioxoisoindolin-5-yl)amino)propoxy)phenyl)propan-2-yl)phenoxy)methyl)-N-methyl-1,2,4-oxadiazol-3-carbonylaminomethane]
21 | 11 to 100 | CC(C)(c1ccc(OCc2ccnc(N3CCC4(CCNC4)C3)n2)cc1)c1ccc(O[C@H]2C[C@H](Nc3ccc4c(c3)C(=O)N(C3CCC(=O)NC3=O)C4=O)C2)cc1 (some centres unmarked) [Example 81, 5-(((1r,3r)-3-(4-(2-(4-((2-(2,7-diazaspiro[4.4]nonan-2-yl)pyrimidin-4-yl)methoxy)phenyl)propan-2-yl)phenoxy)cyclobutyl)amino)-2-(2,6-dioxopiperidin-3-yl)isoindolin-1,3-dione]
22 | 11 to 100 | Cc1nc(-c2ncc(Oc3ccc(C(C)(C)c4ccc(O[C@H]5C[C@H](Nc6ccc7c(c6)C(=O)N(C6CCC(=O)NC6=O)C7=O)C5)cc4)cc3)cc2F)no1 (some centres unmarked) [Example 511]
23 | 11 to 100 | Cc1nc(-c2ccc(Oc3ccc(C4(c5ccc(O[C@H]6C[C@H](Nc7ccc8c(c7)C(=O)N(C7CCC(=O)NC7=O)C8=O)C6)cc5)CC4)cc3)nn2)no1 (some centres unmarked) [Example 376, 2-(2,6-dioxopiperidin-3-yl)-5-(((1r,3r)-3-(4-(1-(4-((6-(5-methyl-1,2,4-oxadiazol-3-yl)pyridazine-3-yl)oxy)phenyl)cyclopropyl)phenoxy)cyclobutyl)amino)isoindolin-1,3-dione]

same assay, conditions: AR-v7 degradation in 22RV1 cells, 48 h, numeric values

Row | Compound | DC50 [nM]
24 | CC(C)(c1ccc(OCc2ccnc(NS(C)(=O)=O)n2)cc1)c1ccc(OCC2CN(c3ccc4c(c3)C(=O)N(C3CCC(=O)NC3=O)C4=O)C2)cc1 (centres unmarked) [Example 48, N-(4-((4-(2-(4-((1-(2-(2,6-dioxopiperidin-3-yl)-1,3-dioxoisoindolin-5-yl)azetidin-3-yl)methoxy)phenyl)propan-2-yl)phenoxy)methyl)pyrimidin-2-yl)methanesulfonamide] | > 10000
25 | CC(C)(c1ccc(OCCCCCCCCOCCCCNc2ccc3c(c2)C(=O)N(C2CCC(=O)NC2=O)C3=O)cc1)c1ccc(OCc2cncc(NS(C)(=O)=O)n2)cc1 (centres unmarked) [Example 31, N-(6-((4-(2-(4-((8-(4-((2-(2,6-dioxopiperidin-3-yl)-1,3-dioxoisoindolin-5-yl)amino)butoxy)octyl)oxy)phenyl)propan-2-yl)phenoxy)methyl)pyrazin-2-yl)methanesulfonamide] | > 10000
26 | CC(C)(c1ccc(OCCCCCCCCOCCCCNc2ccc3c(c2)C(=O)N(C2CCC(=O)NC2=O)C3=O)cc1)c1ccc(OCc2ccnc(-n3cccn3)n2)cc1 (centres unmarked) [Example 437, 5-((4-((8-(4-(2-(4-((2-(1H-pyrazol-1-yl)pyrimidin-4-yl)methoxy)phenyl)propan-2-yl)phenoxy)octyl)oxy)butyl)amino)-2-(2,6-dioxopiperidin-3-yl)isoindolin-1,3-dione] | > 10000
